Test results published in patent US9057726B2, “Neuropeptide Q as modulator of GPCR GALR2 and uses thereof” (Actelion Pharmaceuticals Ltd., priority 2010, dated 2015).
No end group written: not given here.

Tests used:
[1] = target: T1, GALR2 (Homo sapiens, UniProt O43603); assay: FLIPR assay (intracellular calcium release); format: cell-based; set-up: expressed in transfected cells; host or cells: CHO-K1 (coexpressing Gα16); settings: CHO-K1 cells coexpressing Gα16 and human GALR2
T1 sequence (O43603 1-387): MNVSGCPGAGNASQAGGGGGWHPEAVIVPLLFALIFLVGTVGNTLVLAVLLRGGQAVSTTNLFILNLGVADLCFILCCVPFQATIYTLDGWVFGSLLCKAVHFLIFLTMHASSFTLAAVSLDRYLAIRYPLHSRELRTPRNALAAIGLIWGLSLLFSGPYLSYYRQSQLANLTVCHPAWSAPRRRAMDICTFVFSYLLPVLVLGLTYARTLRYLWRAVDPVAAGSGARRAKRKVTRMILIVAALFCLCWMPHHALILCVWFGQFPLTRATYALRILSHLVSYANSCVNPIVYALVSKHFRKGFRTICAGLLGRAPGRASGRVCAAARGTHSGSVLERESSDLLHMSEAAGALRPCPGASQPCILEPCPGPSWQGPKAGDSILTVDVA
Method: CHO-K1 cells coexpressing Gα16 and the recombinant human GALR2 receptor grown to mid-log phase in culture media are detached with PBS-EDTA, centrifuged, resuspended in cell-culture medium (HAM's F12 with HEPES, 10% (v/v) Fetal Calf Serum), and dispensed at 15′000 cells per well in 384-well FLIPR plates. After overnight incubation in a humidified 37° C./5% CO2 incubator, the medium was discarded and replaced with a dye solution (DMEM w/o Phenol Red with HEPES, Fluo4-AM and Probenecid). After an incubation of 1 hour in a humidified 37° C./5% CO2 incubator, the dye solution was replaced by Assay Medium (HBSS/DMEM w/o phenol red). […] The resulting emission of fluorescence is recorded using FLIPR tetra. For antagonist testing 100 μl of the Neuropeptide Q polypeptide at its EC80 is injected on the mix of cells and candidate modulator, following an incubation of 15 min after the first injection. The resulting emission of fluorescence is recorded using FLIPR tetra. Agonist activity of the candidate modulator is expressed as a percentage of the activity of the Neuropeptide Q polypeptide at its EC100 concentration. Antagonist activity of the candidate modulator is expressed as a percentage of the inhibition of Neuropeptide Q polypeptide activity at its EC80 concentration.

[2] = tested on: stomach muscle; settings: stomach explants, dose-dependent contraction; cited from earlier work
[3] = target: T1, GALR2; settings: in vitro studies; cited from earlier work

| EC50 [1] [nM] | Substance | further results |
| --- | --- | --- |
| 0.1 | NWTPQAMLYLKGAAG |  |
|  | NWTPQAMLYLKGAQ [Neuropeptide Q, synthetic amidated Neuropeptide Q tested by Mirabeau et al] | EC50 [2]: 750 nM |
| 0.3 | NWTPQAMLYLKGAQP |  |
| 0.3 | NWTPQAMLYLKGPQG |  |
| 0.1 | PWTPQAMLYLKGAQG |  |
|  | galanin-(2-13)-Glu-His-(Pro)3-(Ala-Leu)2-Ala-amide [Peptide M871] | higher affinity for GALR2 than for GALR1 [3]: 32 fold |
